Laboratory results as given in paper PMC3693772, “Protein expression, biochemical pharmacology of signal transduction, and relation to intraocular pressure modulation by bradykinin B2 receptors in ciliary muscle” (Molecular Vision, 2013).
Where two headings read alike, the source gives them in different places.

Assays:
[1] = system: CHO-B2 cells; format: cell-based, Chinese hamster ovary cells, human cloned B2 receptor; settings: 1 h at 37 °C; enzyme immunoassay; mean ± SEM, 3 to 6 experiments; read-out: PGE2 production in CHO-B2 cells (EC50)
[2] = system: primary h-CM cells; format: cell-based, human; settings: for EC50: 1 h at 37 °C, enzyme immunoassay, mean ± SEM, 3 to 6 experiments, read-out: Total PGs production in h-CM cells (EC50)
[3] = system: CHO-B2 cells; format: cell-based, Chinese hamster ovary cells, human cloned B2 receptor; settings: 1 h at 37 °C; enzyme immunoassay; mean ± SEM, 3 to 6 experiments; read-out: PGF2α production in CHO-B2 cells (EC50)
[4] = system: h-CM cells; format: cell-based, human; settings: 1 h at 37 °C; enzyme immunoassay; mean ± SEM, 3 to 6 experiments; read-out: PGE2 production in h-CM cells (EC50)
[5] = system: CHO-B2 cells (human cloned B2 receptor); format: cell-based, Chinese hamster ovary cells; settings: for EC50: 1 h at 37 °C, enzyme immunoassay, mean ± SEM, 3 to 6 experiments, read-out: Total PGs production in CHO-B2 cells (EC50); for PG production/release by compound alone, CHO-B2 cells: compound on its own
[6] = system: h-CM cells; format: cell-based, human; settings: 1 h at 37 °C; enzyme immunoassay; mean ± SEM, 3 to 6 experiments; read-out: PGF2α production in h-CM cells (EC50)
[7] = system: cynomolgus monkey eyes; settings: cabergoline 50 µg topical, ocular hypertensive eyes, nine monkeys, ref Thirty ([30]), cited from earlier work
Text: Table 4 Effects of topical ocular bradykinin on IOP of Cynomolgus monkey eyes | column: Monkey IOP changes after topical ocular dosing / IOP (mmHg); Monkey IOP changes after topical ocular dosing / IOP change (% of control)

[8] = system: CHO-B2 cells; settings: read-out: PGD2 production in CHO-B2 cells (EC50), 1 h at 37 °C, enzyme immunoassay
Protocol: Measurement of prostaglandins in human ciliary muscle and Chinese hamster ovary cells expressing B2 receptors
This involved stimulating h-CM cells and CHO-B2 cells with various concentrations of test peptides and measuring the release of various PGs in the extracellular medium. The concentration-dependent effects of these peptides on total PGs, and specifically PGE2, PGF2α, and PGD2 release, were studied. Cells were grown as a monolayer in a 24-well plate (precoated with fibronectin) to confluence and subsequently serum-starved overnight before the experiment. On the day of the experiment, just before the drug was added, the wells were aspirated completely, and 990 µl basal medium and 10 µl 100× series of concentrations of the different peptide agonists were added to achieve the desired final concentrations of each compound (e.g., 0.1 nM to 10 µM). […] At the end of the incubation period, the cellular supernatants were collected and stored at −80 °C or used immediately to determine the PG content. Cell supernatants were tested for total PG levels and sub-species of PGs (PGE2, PGF2α, and PGD2) using specific competitive enzyme immunoassays (Cayman Chemical Co., Ann Arbor, MI) as directed in the manufacturer’s recommended protocols using the supplied standards and reagents. The limits of detection for various PGs were as follows: total PGs=29 pg/ml; PGE2=15 pg/ml; PGF2α=9 pg/ml; PGD2=200 pg/ml.

[9] = system: primary h-TM cells; format: cell-based, human; settings: preliminary data, values rounded-off, read-out: Agonist potency at stimulating [Ca^2+]i mobilization in primary h-TM cells (EC50)
[10] = system: B2-receptor, primary h-CM cells; format: cell-based, human
Protocol: Functional assay measuring [Ca^2+]i mobilization in cultured human ciliary muscle cells
Accordingly, we isolated h-CM cells and studied BK-induced [Ca^2+]i mobilization in these cells using the Fluorescence Imaging Plate Reader (FLIPR; Molecular Devices, Menlo Park, CA) instrument as previously described. Low passage h-CM cells were seeded at a density of about 20,000 cells/well in a black-wall, 96-well tissue culture plates and grown for 2 days. On the day of the experiment, one vial of FLIPR Calcium Assay Kit dye (Molecular Devices) was resuspended in 50 ml of a FLIPR buffer consisting of Hank’s Balanced Salt Solution (HBSS), 20 mM HEPES, and 2.5 mM probenecid, pH 7.4. Cells were loaded with the calcium-sensitive dye (proprietary to Molecular Devices) by adding an equal volume (50 µl) to each well of the 96-well plate and incubated with dye for 1 h at 23 °C. Then the test compound plate and the cell plate were placed in the FLIPR instrument, and an aliquot (25 μl) of the BK solution (positive control) or the test compound was added to the existing 100 μl dye-loaded cells at a dispensing speed of 50 μl/sec. Fluorescence data were collected in real time over a period of time. Responses were measured as peak fluorescence intensity minus basal and where appropriate are expressed as a percentage of a maximum BK-induced response [Emax %]. When antagonist studies were performed, the latter were incubated with the cells for 15 min before BK was added. When the effects of various cellular signaling inhibitors/treatments were investigated, they were added to the cells 5 min before BK was added. The potencies (EC50 or IC50 values) of agonists and antagonists were determined from concentration-response curves using a sigmoidal-fit, iterative algorithm of a computer program designed to automatically fit the raw data (ActivityBase, IDBS, Surrey, UK). […] Concentration-response curves and other plots for the manuscript were constructed using Origin® software package (Microcal® Software Inc., Northampton, MA).
Figure 3 Concentration-dependent effect of bradykinin (BK) on mobilization of [Ca^2+]i in normal, primary h-CM cells. Fluorescent dye-loaded h-CM cells were exposed to different concentrations of BK and the changes in relative fluorescence units (RFUs), indicating changes in levels of [Ca^2+]i, monitored over time (Figure 3A). The peak responses to various BK concentrations were then used to construct the concentration-response curves. Other BK-related peptides were tested in the same manner and their concentration-response curves plotted (e.g., data from a representative experiment; Figure 3B).

[11] = molecular target: T1, human cloned B2 receptor (Homo sapiens, UniProt P30411); assay: [^3H]-BK binding to human cloned B2 receptor (CHO-B2 membranes); settings: 0.2 nM [^3H]-BK, CHO-B2 homogenates 2.5 µg protein, 60 min, 23 °C, 50 mM Tris/HCl pH 7.4; mean±SEM, up to 19 experiments; read-out: Ligand binding inhibition constant at human cloned B2 receptors (Ki)
T1 construct: purchased Euroscreen, Gosselies, Belgium; host or cells: CHO cells (recombinant, CHO-B2), used as cell homogenates/membranes
T1 sequence (P30411 1-391): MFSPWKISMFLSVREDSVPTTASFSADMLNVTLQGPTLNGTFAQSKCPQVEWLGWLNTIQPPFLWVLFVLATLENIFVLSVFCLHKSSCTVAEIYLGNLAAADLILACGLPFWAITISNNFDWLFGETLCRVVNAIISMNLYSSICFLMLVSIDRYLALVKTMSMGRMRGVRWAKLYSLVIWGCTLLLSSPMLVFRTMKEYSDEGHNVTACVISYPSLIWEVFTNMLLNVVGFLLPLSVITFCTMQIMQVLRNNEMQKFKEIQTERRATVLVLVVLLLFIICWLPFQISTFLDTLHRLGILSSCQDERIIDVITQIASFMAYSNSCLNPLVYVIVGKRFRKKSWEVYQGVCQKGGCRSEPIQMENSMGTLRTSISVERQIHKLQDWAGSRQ
Protocol: However, in view of the difficulty of obtaining sufficient h-CM cells for these initial studies, we decided to use cell membranes of Chinese hamster ovary cells containing the human cloned B2 receptor (CHO-B2; Euroscreen, Gosselies, Belgium). […] Following this incubation, the samples were filtered rapidly under vacuum through glass fiber filters (PerkinElmer) presoaked with 0.3% polyethyleneimine and rinsed several times with an ice-cold 50 mM Tris-HCl buffer using a 96-sample cell harvester (TomTec; Gaithersburg, MD). The filters were air-dried and the radioactivity counted in a beta-scintillation counter (TopCount, PerkinElmer). Data were analyzed using a sigmoidal-fit, iterative algorithm of a computer program designed to automatically fit the new data (Activity base; IDBS, Surrey, UK).

**Q.** Which results are given for CCCC[P+](CCCC)(CCCC)Cc1ccc(NC(=O)[C@H](Cc2ccc3ccccc3c2)NC(=NC2CCCCC2)NC2CCCCC2)cc1.[Cl-] [(S)-WIN-64338]?
**A.** EC50 [1]: > 10 nM; EC50 [2]: > 10000 nM; PG production/release by compound alone, h-CM cells ([2]; compound on its own, listed as WIN-64338): did not induce PGs release; Effect on BK-induced total PGs production, h-CM cells [2]: blocked; Effect on BK-induced total PGs production, h-CM cells ([2]; listed as WIN-64338): potent antagonism; EC50 [3]: > 10 nM; EC50 [4]: > 10000 nM; EC50 [5]: > 10 nM; Effect on BK-induced total PGs production, CHO-B2 cells [5]: blocked; Effect on BK-induced total PGs production, CHO-B2 cells ([5]; listed as WIN-64338): potent antagonism; PG production/release by compound alone, CHO-B2 cells [5]: failed to influence PG production; PG production/release by compound alone, CHO-B2 cells ([5]; listed as WIN-64338): did not induce PGs release; EC50 [6]: > 10000 nM

**Q.** Which IOP ([7]; 0 h) does the source give for C=CCN1C[C@H](C(=O)N(CCCN(C)C)C(=O)NCC)C[C@@H]2c3cccc4[nH]cc(c34)C[C@H]21 [Cabergoline, cabergoline] here?
**A.** The IOP was 34.7±3.0 mmHg.

**Q.** What about the “IOP change (% of control)” value ([7]; 0 h) of the same molecule?
**A.** The value was 0%.

**Q.** What about the “IOP change (% of control)” value ([7]; 1 h) of the same molecule?
**A.** Its value is -16.0%.

**Q.** And the “IOP change (% of control)” value ([7]; 3 h)?
**A.** The value was -30.4%.

**Q.** What about the “IOP change (% of control)” value ([7]; 7 h) of the same molecule?
**A.** The value was -28.8%.

**Q.** And the “IOP change (% of control)” value ([7]; 24 h)?
**A.** Its value is -27.3%.

**Q.** For N=C(N)NCCC[C@H](N)C(=O)N1CCC[C@H]1C(=O)N1CCC[C@H]1C(=O)NCC(=O)N[C@@H](Cc1ccccc1)C(=O)N[C@@H](CO)C(=O)N1CCC[C@H]1C(=O)N[C@@H](Cc1ccccc1)C(=O)O [Des-Arg^9-BK], which EC50 ([8]; one bound printed) is on record?
**A.** The EC50 was over 100 nM.

**Q.** And the EC50 [1]?
**A.** Its EC50 is over 100 nM.

**Q.** And the EC50 [9]?
**A.** Its EC50 is 3600 nM.

**Q.** And the EC50 [2]?
**A.** The EC50 was over 1000 nM.

**Q.** What about the EC50 [3] of the same molecule?
**A.** Its EC50 is over 100 nM.

**Q.** And the EC50 [4]?
**A.** Its EC50 is over 1000 nM.

**Q.** And the EC50 [5]?
**A.** The EC50 was over 100 nM.

**Q.** And the EC50 [6]?
**A.** The EC50 was over 1000 nM.

**Q.** Which results are given for O=C(O)CN(CCOCCOCCN(CC(=O)O)CC(=O)O)CC(=O)O [EGTA, ethylene glycol tetraacetic acid]?
**A.** Effect on BK-induced [Ca^2+]i mobilization ([10]; EGTA 1 mM, 5 min preincubation): complete abolition of the response to BK; Effect on BK-induced [Ca^2+]i mobilization ([10]; EGTA 1–2 mM): totally abolished; Effect on BK-induced [Ca^2+]i mobilization ([10]; EGTA 1–2 mM, listed as ethylene glycol tetraacetic acid): abolished

**Q.** What does the source list for N=C(N)NCCC[C@H](NC(=O)[C@H](Cc1ccccc1)NC(=O)[C@@H]1CCCN1C(=O)[C@H](CO)NC(=O)[C@H](Cc1ccccc1)NC(=O)CNC(=O)[C@@H]1C[C@@H](O)CN1C(=O)[C@@H]1CCCN1C(=O)[C@@H](N)CCCNC(=N)N)C(=O)O [Hyp^3-BK]?
**A.** EC50 ([10]; primary h-CM cells, FLIPR, Calcium Assay Kit dye, pH 7.4, 23 °C dye loading, mean ± SEM, n=3-7, read-out: Agonist potency at stimulating [Ca^2+]i mobilization in primary h-CM cells (EC50)): 2.2 ± 0.2 nM; EC50 ([8]; first of two values in cell): 0.0304 nM; EC50 ([8]; second of two values in cell): 0.0582 nM; EC50 [1]: 0.0307 ± 0.0185 nM; EC50 [9]: 1 nM; EC50 [2]: 10.9 ± 6.1 nM; EC50 [3]: 0.0593 ± 0.0373 nM; EC50 [4]: 10.1 ± 4.2 nM; EC50 [5]: 0.0683 ± 0.0367 nM; EC50 [6]: 9.2 ± 5.3 nM

**Q.** With NCCCC[C@H](N)C(=O)N[C@@H](CCCN=C(N)N)C(=O)N1CCC[C@H]1C(=O)N1CCC[C@H]1C(=O)NCC(=O)N[C@@H](Cc1ccccc1)C(=O)N[C@@H](CO)C(=O)N1CCC[C@H]1C(=O)N[C@@H](Cc1ccccc1)C(=O)N[C@@H](CCCN=C(N)N)C(=O)O [Lys-BK] as the molecule, how does the Ki [11] read?
**A.** The Ki was 1.8 ± 0.7 nM.

**Q.** For CNCC(=O)N[C@@H](CCCNC(=N)N)C(=O)N1CCC[C@H]1C(=O)N1CCC[C@H]1C(=O)NCC(=O)N[C@@H](Cc1ccccc1)C(=O)N[C@@H](CO)C(=O)N1CCC[C@H]1C(=O)N[C@H](Cc1ccccc1)C(=O)O [Sar-[D-Phe^9]-Des-Arg^9-BK], which EC50 [2] is on record?
**A.** Its EC50 is over 1000 nM.

**Q.** And the EC50 [5]?
**A.** Its EC50 is over 1 nM.

**Q.** For C/C=C(/C)C(=O)O[C@H]1C(C)=C2[C@H]([C@@H]1OC(=O)CCCCCCC)[C@@](C)(OC(C)=O)C[C@H](OC(=O)CCC)[C@@]1(O)[C@H]2OC(=O)[C@@]1(C)O [thapsigargin], which “Reduction of BK-mobilized [Ca^2+]i levels vs control cells” value ([10]; thapsigargin 0.1 or 30 µM preincubation) is on record?
**A.** Its value is over 50%.

**Q.** What about the “Effect on response to BK after thapsigargin” value ([10]; thapsigargin pretreatment) of the same molecule?
**A.** The value was “blunted but not abolished”.

**Q.** What about the “Effect on BK-induced [Ca^2+]i rise in presence of EGTA” value ([10]; thapsigargin, 1 mM EGTA included) of the same molecule?
**A.** The value was “concentration-dependently reduced”.

**Q.** Which “Effect on BK-induced [Ca^2+]i levels” value ([10]; ryanodine 1–30 µM, data not shown) does the source give for ryanodine here?
**A.** Its value is “did not enhance but instead slightly reduced the effect of BK”.
